Results taken from patent US8921373B2, “Compounds having TRPV1 antagonistic activity and uses thereof” (Shionogi & Co., Ltd., priority 2010, dated 2014).

Columns and labels:
[1] = Measurement of body temperature increase (rectal body temperature); type: in vivo, rat; details: Crl/SD rats, oral, 1 mg/mL at 10 mL/kg
Method: Test Animals: Selection of rats (Crl/SD rats, 7 weeks, male) for this study was based on rectal body temperature measured during the morning of the day of dosing. In addition, animals selected for this study were acclimated to both the rectal measurement procedure and to being handled and dosed to minimize spontaneous, stress-induced, increases in body temperature. The study was conducted in the animal care laboratories where the room temperature and humidity were kept. The rats were free to move and food and water during the study. Each rat was numbered with color line on the tail, housed in each cage and permitted the normal range of movement. Immediately before each body temperature was measured, they transferred to a single cage at each measurement. To reduce stress which affected the body temperature, the rats were covered with towels at the measurement. The thermistor probe was then carefully inserted into the rectum of each rat and left in place until the value on the digital display had stabilized.
Assays: On the day before dosing, rectal body temperatures were measured at 9:00, 10:00, 11:00, 12:30, 13:30, 14:30 and 15:30 to familiarize the animals with the measurement procedure prior to administration of the test or control treatments. The rats were also dosed by oral gavage without vehicle at 12:30 to acclimate and familiarized the animals with the handling and dosing procedure.
On the day of dosing, only rats whose rectal body temperatures were within the range of 37.0° C. to 37.7° C. were selected for this study. Rectal body temperatures were measured at 9:00, 10:00 and 11:00. Rats whose rectal body temperatures were over 37.9° C. at 10:00, and were outside the range of 37.0° C. to 37.7° C. at 11:00 were excluded from the study. The selected rats were divided to several groups based on their rectal body temperatures at 11:00. Rectal body temperatures of the selected rats were measured again at 12:30, and any rats whose rectal body temperature was 38.0° C. or greater were excluded from the study.
Following the group assignment, test compounds or vehicle was administrated to the rats. Each test compound was dissolved in 0.5% methylcellurose and the final concentration of the compound was adjusted to 1 mg/mL. Test compound was orally administrated in a volume 10 mL/kg once. 10 mL/kg of vehicle (0.5% methylcellurose) was administered to the vehicle group. The rectal body temperatures were measured 0.5, 1 and 2 hrs after the administration. The study was conducted in the animal care laboratories where the room temperature and humidity were kept.
Body temperature increase (ΔTb) was calculated from the difference from an average of the vehicle group at each time point.

[2] = tested on: FCA-induced inflammation of the rat hind paw; test: Freund's complete adjuvant (FCA) model of inflammatory pain, reversal of hyperalgesia; type: in vivo; details: rats
Method: Test Animals: Each experiment uses rats weighing between 200-260 g at the start of the experiment. The rats are group-housed and have free access to food and water at all times, except prior to oral administration of a compound of Formula I when food is removed for 16 hours before dosing. A control group acts as a comparison to rats treated with a compound of Formula I. The control group is administered the carrier for the compound of Formula I. The volume of carrier administered to the control group is the same as the volume of carrier and compound of Formula I administered to the test group.
Inflammatory Pain: To assess the actions of the compounds of Formula I on the treatment or prevention of inflammatory pain the Freund's complete adjuvant (“FCA”) model of inflammatory pain is used. […] 24 hour post injection, the animal is assessed for response to noxious mechanical stimuli by determining the PWT, or to noxious thermal stimuli by determining the PWL, as described below. […] Responses to noxious mechanical or thermal stimuli are then determined 1, 3, 5 and 24 hours post administration. […]
Response to Mechanical Stimuli as an Assessment of Mechanical Hyperalgesia: The paw pressure assay can be used to assess mechanical hyperalgesia. For this assay, hind paw withdrawal thresholds (PWT) to a noxious mechanical stimulus are determined using an analgesymeter (Model 7200, commercially available from Ugo Basile of Italy) as described in C. […] PWT is determined once for each rat at each time point and only the affected (ipsilateral) paw is tested.
Response to Thermal Stimuli as an Assessment of Thermal Hyperalgesia: The plantar test can be used to assess thermal hyperalgesia. For this test, hind paw withdrawal latencies (PWL) to a noxious thermal stimulus are determined using a plantar test apparatus (commercially available from Ugo Basile of Italy) following the technique described by K. Hargreaves et al., “A New and Sensitive Method for Measuring Thermal Nociception in Cutaneous Hyperalgesia,” Pain 32(1):77-88 (1988). […] Three latencies are determined at each time point and averaged. […]

Body temperature increase [1]: less than 0.5 °C
Compound: Cc1cc(NC(=O)N2CCC(F)(c3ncc(C[C@H](O)CO)cc3F)CC2)ccc1C(F)(F)F [ACQ, (S)-4-(5-(2,3-dihydroxypropyl)-3-fluoropyridin-2-yl)-4-fluoro-N-(3-methyl-4-(trifluoromethyl)phenyl)piperidine-1-carboxamide]
Percentage reversal of hyperalgesia, % Reversal (3 mg/Kg, 3 hours post administration) [2]: 41.7%
